In ChEMBL document CHEMBL1141779, “Sesterterpenoids, terretonins A-D, and an alkaloid, asterrelenin, from Aspergillus terreus” (J Nat Prod, 2005):

Key:
[1] = Cytotoxicity against human Bre04 cells; format: functional
[2] = Cytotoxicity against human Lu04 cells; format: functional
[3] = Cytotoxicity against human N04 cells; format: functional
[4] = Inhibition of alpha-amylase
[5] = biological target: Sucrase-isomaltase, intestinal (Homo sapiens, UniProt P14410); assay: Inhibition of sucrase
Maltase-glucoamylase = Maltase-glucoamylase (Homo sapiens, UniProt O43451); assay: Inhibition of maltase
Chain of Maltase-glucoamylase (O43451 whole entry): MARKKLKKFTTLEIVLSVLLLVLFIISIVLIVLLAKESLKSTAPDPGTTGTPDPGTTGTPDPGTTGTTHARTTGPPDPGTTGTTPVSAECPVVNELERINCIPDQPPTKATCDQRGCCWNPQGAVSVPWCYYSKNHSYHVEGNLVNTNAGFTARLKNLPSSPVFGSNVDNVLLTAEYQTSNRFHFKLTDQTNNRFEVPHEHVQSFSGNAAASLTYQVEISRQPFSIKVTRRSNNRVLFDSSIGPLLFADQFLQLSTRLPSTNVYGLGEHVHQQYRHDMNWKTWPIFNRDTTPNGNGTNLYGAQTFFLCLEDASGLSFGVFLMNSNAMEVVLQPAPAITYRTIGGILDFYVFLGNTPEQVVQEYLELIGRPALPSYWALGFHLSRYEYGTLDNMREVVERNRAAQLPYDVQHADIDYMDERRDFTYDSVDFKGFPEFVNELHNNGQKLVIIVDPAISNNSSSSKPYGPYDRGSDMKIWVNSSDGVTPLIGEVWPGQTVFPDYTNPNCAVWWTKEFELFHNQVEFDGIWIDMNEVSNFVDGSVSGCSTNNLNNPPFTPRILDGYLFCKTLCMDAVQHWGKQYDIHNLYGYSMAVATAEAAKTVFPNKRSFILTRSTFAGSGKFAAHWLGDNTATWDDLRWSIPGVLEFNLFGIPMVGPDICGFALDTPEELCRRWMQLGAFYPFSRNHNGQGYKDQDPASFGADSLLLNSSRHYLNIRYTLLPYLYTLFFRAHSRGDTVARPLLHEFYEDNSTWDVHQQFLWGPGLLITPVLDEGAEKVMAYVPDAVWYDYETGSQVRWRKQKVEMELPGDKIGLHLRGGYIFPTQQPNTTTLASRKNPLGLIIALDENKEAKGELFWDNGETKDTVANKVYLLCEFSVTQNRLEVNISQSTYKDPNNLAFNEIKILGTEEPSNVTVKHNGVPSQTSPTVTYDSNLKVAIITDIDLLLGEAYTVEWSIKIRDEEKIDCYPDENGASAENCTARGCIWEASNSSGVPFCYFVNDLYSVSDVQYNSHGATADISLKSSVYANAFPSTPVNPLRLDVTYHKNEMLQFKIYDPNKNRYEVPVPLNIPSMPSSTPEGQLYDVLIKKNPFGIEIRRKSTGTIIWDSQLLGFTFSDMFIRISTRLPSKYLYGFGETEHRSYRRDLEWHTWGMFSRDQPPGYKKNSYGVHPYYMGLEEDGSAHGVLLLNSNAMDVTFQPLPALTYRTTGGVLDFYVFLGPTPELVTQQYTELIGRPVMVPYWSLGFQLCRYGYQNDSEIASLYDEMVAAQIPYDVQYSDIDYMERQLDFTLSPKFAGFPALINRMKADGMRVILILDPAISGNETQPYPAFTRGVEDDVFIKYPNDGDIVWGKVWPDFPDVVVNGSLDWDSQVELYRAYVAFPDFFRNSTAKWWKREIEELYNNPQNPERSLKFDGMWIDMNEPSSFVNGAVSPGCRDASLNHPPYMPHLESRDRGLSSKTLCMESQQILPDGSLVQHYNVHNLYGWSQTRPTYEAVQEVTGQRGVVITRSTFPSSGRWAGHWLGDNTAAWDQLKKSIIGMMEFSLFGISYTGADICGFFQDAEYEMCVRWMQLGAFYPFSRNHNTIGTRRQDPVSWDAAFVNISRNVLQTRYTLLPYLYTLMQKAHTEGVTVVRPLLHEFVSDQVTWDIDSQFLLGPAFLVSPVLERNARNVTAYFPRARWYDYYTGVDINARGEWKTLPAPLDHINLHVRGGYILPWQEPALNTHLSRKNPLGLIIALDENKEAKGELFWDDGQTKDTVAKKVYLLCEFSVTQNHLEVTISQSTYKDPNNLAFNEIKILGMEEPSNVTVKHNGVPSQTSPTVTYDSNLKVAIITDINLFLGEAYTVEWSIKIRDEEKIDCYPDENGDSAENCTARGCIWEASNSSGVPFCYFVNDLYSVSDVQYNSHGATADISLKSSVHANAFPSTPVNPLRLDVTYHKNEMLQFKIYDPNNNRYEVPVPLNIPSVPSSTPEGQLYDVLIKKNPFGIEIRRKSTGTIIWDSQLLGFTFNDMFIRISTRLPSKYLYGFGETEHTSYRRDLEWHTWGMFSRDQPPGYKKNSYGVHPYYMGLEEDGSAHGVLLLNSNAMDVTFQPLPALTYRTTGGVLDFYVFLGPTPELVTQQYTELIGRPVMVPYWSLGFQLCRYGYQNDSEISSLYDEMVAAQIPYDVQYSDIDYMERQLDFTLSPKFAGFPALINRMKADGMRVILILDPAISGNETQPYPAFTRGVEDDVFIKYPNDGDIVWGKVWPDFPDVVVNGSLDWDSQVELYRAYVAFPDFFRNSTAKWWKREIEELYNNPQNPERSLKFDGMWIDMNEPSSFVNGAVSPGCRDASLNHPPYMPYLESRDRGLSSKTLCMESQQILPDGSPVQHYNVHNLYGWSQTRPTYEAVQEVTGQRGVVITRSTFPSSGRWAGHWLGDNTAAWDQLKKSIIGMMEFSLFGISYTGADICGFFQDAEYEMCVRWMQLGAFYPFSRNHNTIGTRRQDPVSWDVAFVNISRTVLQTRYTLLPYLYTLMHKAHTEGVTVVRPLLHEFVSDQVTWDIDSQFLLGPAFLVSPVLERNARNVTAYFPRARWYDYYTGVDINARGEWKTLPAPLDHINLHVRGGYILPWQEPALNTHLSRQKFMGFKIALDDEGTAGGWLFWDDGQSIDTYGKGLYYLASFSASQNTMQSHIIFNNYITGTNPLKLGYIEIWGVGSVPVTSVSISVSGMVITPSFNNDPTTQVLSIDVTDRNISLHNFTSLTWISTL

Chain of Sucrase-isomaltase, intestinal (P14410 2-1007 limits assumed): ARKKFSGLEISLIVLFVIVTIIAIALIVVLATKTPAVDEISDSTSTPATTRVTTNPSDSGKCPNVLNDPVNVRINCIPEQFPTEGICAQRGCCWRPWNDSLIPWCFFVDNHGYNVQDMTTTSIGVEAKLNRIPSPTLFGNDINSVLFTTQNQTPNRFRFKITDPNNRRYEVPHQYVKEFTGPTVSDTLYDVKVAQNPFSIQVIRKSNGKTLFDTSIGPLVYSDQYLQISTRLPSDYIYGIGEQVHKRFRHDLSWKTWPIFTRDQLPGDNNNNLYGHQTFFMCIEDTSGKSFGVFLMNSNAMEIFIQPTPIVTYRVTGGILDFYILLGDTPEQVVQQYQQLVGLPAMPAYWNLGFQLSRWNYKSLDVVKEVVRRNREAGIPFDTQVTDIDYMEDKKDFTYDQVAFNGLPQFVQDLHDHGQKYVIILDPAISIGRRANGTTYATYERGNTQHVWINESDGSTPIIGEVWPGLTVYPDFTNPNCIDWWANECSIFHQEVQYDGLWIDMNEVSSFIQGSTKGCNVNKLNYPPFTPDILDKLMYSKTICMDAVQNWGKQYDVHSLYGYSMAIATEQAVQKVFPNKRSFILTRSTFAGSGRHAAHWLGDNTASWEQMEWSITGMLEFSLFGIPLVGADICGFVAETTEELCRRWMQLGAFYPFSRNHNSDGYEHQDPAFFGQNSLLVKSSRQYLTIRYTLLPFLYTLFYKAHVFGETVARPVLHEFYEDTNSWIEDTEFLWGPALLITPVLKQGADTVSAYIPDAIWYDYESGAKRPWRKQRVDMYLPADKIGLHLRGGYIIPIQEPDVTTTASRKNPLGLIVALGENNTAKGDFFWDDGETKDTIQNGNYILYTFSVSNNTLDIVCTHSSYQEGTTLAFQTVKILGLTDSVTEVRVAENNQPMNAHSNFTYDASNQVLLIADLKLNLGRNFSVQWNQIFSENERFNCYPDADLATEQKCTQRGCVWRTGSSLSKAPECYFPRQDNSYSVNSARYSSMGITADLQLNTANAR
Chain of Sucrase-isomaltase, intestinal (P14410 1008-1827 limits assumed): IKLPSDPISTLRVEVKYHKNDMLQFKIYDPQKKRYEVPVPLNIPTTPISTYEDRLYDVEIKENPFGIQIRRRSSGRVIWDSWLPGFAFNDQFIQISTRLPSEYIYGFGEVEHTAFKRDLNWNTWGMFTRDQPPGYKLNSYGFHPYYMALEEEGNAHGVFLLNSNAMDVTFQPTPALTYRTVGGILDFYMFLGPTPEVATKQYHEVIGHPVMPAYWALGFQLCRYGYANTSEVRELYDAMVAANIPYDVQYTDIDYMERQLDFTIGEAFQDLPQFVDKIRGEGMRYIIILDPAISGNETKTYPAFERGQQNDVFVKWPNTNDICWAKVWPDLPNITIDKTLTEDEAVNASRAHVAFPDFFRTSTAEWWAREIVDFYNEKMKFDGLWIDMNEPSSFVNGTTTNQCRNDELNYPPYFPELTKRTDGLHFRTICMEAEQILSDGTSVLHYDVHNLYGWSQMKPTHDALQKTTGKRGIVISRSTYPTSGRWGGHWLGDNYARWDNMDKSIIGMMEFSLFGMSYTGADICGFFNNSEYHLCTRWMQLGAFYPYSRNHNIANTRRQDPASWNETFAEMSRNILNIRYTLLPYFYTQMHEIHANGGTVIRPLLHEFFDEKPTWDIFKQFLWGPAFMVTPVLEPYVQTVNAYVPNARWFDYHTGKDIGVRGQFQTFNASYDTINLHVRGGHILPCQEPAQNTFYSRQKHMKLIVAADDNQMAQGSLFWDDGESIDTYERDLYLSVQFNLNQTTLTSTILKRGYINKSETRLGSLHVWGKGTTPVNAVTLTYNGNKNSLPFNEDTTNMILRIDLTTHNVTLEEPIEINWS

| SMILES | GI50 [1] | GI50 [2] | GI50 [3] | IC50 [4] | IC50 [5] | IC50 (Maltase-glucoamylase) |
| --- | --- | --- | --- | --- | --- | --- |
| C=C1C[C@H]2[C@@](C)(C(=O)C(O)=C3C(C)(C)C(=O)CC[C@@]32C)[C@@H]2C(=O)O[C@@](C)(C(=O)OC)C(=O)[C@@]12C [TERRETONIN A] | > 100 µg/mL | > 100 µg/mL | > 100 µg/mL | > 100 µg/mL | > 212 µM | > 212 µM |
| C=C1C[C@]2(O)[C@@]3(C)CCC(=O)C(C)(C)C3=C(O)C(=O)[C@@]2(C)[C@@H]2C(=O)O[C@@](C)(C(=O)OC)C(=O)[C@@]12C [TERRETONIN] | > 100 µg/mL | > 100 µg/mL | > 100 µg/mL | > 100 µg/mL | > 205 µM | > 205 µM |
| COc1cc(-c2cc3c(c(=O)o2)C[C@]2(O)[C@@]4(C)C(=O)C=CC(C)(C)[C@]4(O)CC[C@@]2(C)O3)cc2c1OCO2 [TERRITREM A] | > 100 µg/mL | > 100 µg/mL | > 100 µg/mL | > 100 µg/mL | > 196 µM | > 196 µM |
